Data reported in patent publication US20130165475A1, “DEUTERIUM-ENRICHED HETEROCYCLIC COMPOUNDS AS KINASE INHIBITORS” (ASCEPION PHARMACEUTICALS, INC., priority 2010, published 2013).

Columns and labels:
BEL7404 = experiment: In vivo anti-tumor efficacy, BEL7404 xenograft; set-up: species or system human; settings: Liver cancer, BEL7404 s.c. in nu/nu Balb/c athymic mice, 50 mg/kg once per day oral gavage
[1] = tested on: HT-29 human colon cancer cells; experiment: In vivo anti-tumor efficacy, HT-29 xenograft; settings: HT-29 s.c. in nu/nu Balb/c athymic mice, 50 mg/kg once per day oral gavage
Method: (§1) Female (nu/nu) Balb/c athymic mice at 4-6 weeks of age were injected subcutaneously (s.c.) with MDA-MB-231 human breast cancer cells, A549 human non-small cell lung cancer cells, BEL7401 human liver cancer cells, HT-29 human colon cancer cells, or MKN-45 human gastric cancer cells (ATCC, 5×10^6 cells suspended in 100 μl DMEM medium). Treatment was initiated after the tumor mass grown from subcutaneous implanted tumor cells reaches a median volume of 200-400 mm^3. Mice were randomized into groups with three in each group such that the median tumor volume is nearly equal among all groups. […] Tumor volumes were assessed at least twice weekly by caliper measurement from the start of treatment. Tumor volume was calculated using the formula ½×L×W^2 (L: length of tumor's long axis, W: length of tumor's short axis). […] The efficacy of compounds in reducing tumor growth was assessed by the index Tumor Growth Inhibition (TGI). TGI for a given treatment period was calculated using the group mean tumor volumes according to the formula: TGI=100×(Vvehicle—group−VTreatment—group)÷VVehicle—group wherein VVehicle—group representing the mean tumor volume for the group treated with vehicle and VTreatment—group representing the mean tumor volume of the group treated with a compound.

[2] = tested on: A549 human non-small cell lung cancer cells; experiment: In vivo anti-tumor efficacy, A549 xenograft; settings: A549 s.c. in nu/nu Balb/c athymic mice, 50 mg/kg once per day oral gavage
Method: as §1

[3] = Oral bioavailability study, Group 2 (rats); format: in vivo, male SD rat
Method: Oral pharmacokinetic studies on rats were performed on Example 2, this compound was dissolved in PEG-400 (2:1 mixture of PEG400 and 0.01N HCL (v/v)) and administered orally to male SD rat at a dose of 50 mg/kg. Rat blood was obtained from tail vein at 0.25, 0.5, 1, 2, 3, 4, 6, 8, 12, and 24 hours after administration. The blood concentration of Example 2 was determined using appropriate internal standards and reverse phase HPLC with UV detection. Control blood samples were also run to identify compound-specific peaks. The oral bioavailability was determined by comparing the dose corrected areas under plasma-concentration time curve (AUC) to infinity for Example 2, given orally and intravenously in rats.

[4] = tested on: MKN-45 human gastric cancer cells; experiment: In vivo anti-tumor efficacy, MKN-45 xenograft; settings: MKN-45 s.c. in nu/nu Balb/c athymic mice, 50 mg/kg once per day oral gavage
Method: as §1

[5] = tested on: MDA-MB-231 human breast cancer cells; experiment: In vivo anti-tumor efficacy, MDA-MB-231 xenograft; settings: MDA-MB-231 s.c. in nu/nu Balb/c athymic mice, 50 mg/kg once per day oral gavage
Method: as §1

- bioavailability ([3]; plasma, male SD rat, 50 mg/kg oral, AUC to infinity oral vs intravenous): > 67%
- amount detected in blood after oral dosing ([3]; rat study, 0.25 hours after 50 mg/kg oral dosing): substantial amounts
- half-life ([3]; whole blood, male SD rat, 50 mg/kg oral): 2 to 3 h
Structure (SMILES): Cl.[2H]C([2H])(c1ccnc(N)c1)n1ccc2c(NC(=O)Nc3cc(Cl)ccc3OC)cccc21 [Example 2, 1-[1-[(2-amino-4-pyridyl)-dideuteriomethyl]indol-4-yl]-3-(5-chloro-2-methoxyphenyl)urea hydrochloride]
- Tumor Growth Inhibition (TGI) (BEL7404): A (the TGI is greater or equal to 50%)
- Tumor Growth Inhibition (TGI) [1]: A (the TGI is greater or equal to 50%)
- Tumor Growth Inhibition (TGI) [2]: A (the TGI is greater or equal to 50%)
- Tumor Growth Inhibition (TGI) [4]: A (the TGI is greater or equal to 50%)
- Tumor Growth Inhibition (TGI) [5]: A (the TGI is greater or equal to 50%)
